Data: patent US20050171084A1, “Methods of treatment with lxr modulators” (priority 2002, published 2005)

What was measured:
ABCG1 [1] = experiment: ABCG1 gene expression in the CNS after oral dosing; format: in vivo, C57 B1/6 mice; conditions: oral gavage, Example 1 10 mg kg twice daily, T0901317 50 mg/kg once daily
Procedure: (§1) Total RNA was isolated from tissue and cell culture samples using TRIzol reagent (GibcoBRL). Briefly, tissue samples were thawed directly in 1 ml Trizol/50 mg tissue and homogenized with a polytron. To facilitate recovery of nucleic acid, 100 μg glycogen (Ambion) was added. Cultured cells were lysed in 1 ml Trizol containing 100 μg glycogen per well. Samples were then extracted in chloroform and spun at 4° C. at 11,000×g for 15 min. The aqueous phase was collected and the RNA was precipitated with the addition of isopropanol. The samples were then spun at 11,000×g at 4° C. for 15 min, the pellet washed in 75% ethanol, dried, and dissolved in water. Samples were stored at −70° C. until use.
Total RNA samples were diluted to 100 μg/ml and treated with 40 units/ml […] DNAse-I (Ambion) for 30 min at 37° C. followed by inactivation at 75° C. for 5 min. Samples were quantitated by spectrophotometry or with the RiboGreen assay (Molecular Probes) and diluted to a concentration of 10 ng/μl. Samples were then assayed in duplicate or triplicate 25-μl reactions using 25 ng RNA per reaction with Perkin Elmer chemistry on an ABI Prism 7700 (Perkin Elmer) according to manufacturer's instructions. Gene-specific primers were used at 7.5 or 22.5 pmol per reaction, optimized for each gene examined, and the gene-specific probe was used at 5 pmol per reaction. Primers and probe were synthesized by Keystone Labs (Camarillo, Calif.). In this system, the probe is degraded by Taq polymerase during the amplification phase, releasing the fluorescent tag from its quenched state; amplification data is expressed as the number of PCR cycles required to elevate the fluorescence signal beyond a threshold intensity level. Fold induction values were calculated by subtracting the mean threshold cycle number (Ct) for each treatment group from the mean Ct for the vehicle group and raising 2 to the power of this difference.
Adult male C57 B1/6 mice (3 per group) were dosed by oral gavage with the LXR agonists Example 1, T0901317, or vehicle (0.5% methylcellulose). Example 1 was delivered at 10 mg kg twice daily, while T0901317 was administered at 50 mg/kg once daily. After 3 or 7 days' treatment, animals were killed and their brains removed. The cerebellum and both hippocampi were dissected and snap frozen in liquid nitrogen for RNA isolation. Total RNA was prepared from the hippocampus and cerebellum (black bars) and analyzed for gene expression patterns using QRT-PCR (as described above). Expression levels for each gene in each tissue were normalized to the average expression level in the vehicle group. Both LXR agonists enhanced ABCA1 expression relative to the vehicle-treated group, with the effect most pronounced in the cerebellum after 3 days' treatment.

ABCG1 [2] = experiment: ABCG1 gene expression in primary neuron cultures (QRT-PCR); format: cell-based, mouse; conditions: Neurons
Procedure: as §1
(§2) Total RNA samples were diluted to 100 μg/ml and treated with 40 units/ml […] DNAse-I (Ambion) for 30 min at 37° C. followed by inactivation at 75° C. for 5 min. Samples were quantitated by spectrophotometry or with the RiboGreen assay (Molecular Probes) and diluted to a concentration of 10 ng/μl. […] In this system, the probe is degraded by Taq polymerase during the amplification phase, releasing the fluorescent tag from its quenched state; amplification data is expressed as the number of PCR cycles required to elevate the fluorescence signal beyond a threshold intensity level. […]

ABCA1 = ABCA1 gene expression in primary neuron cultures (QRT-PCR); format: cell-based, mouse; conditions: Neurons
Procedure: as §1, §2

[3] = test system: Primary murine neuronal cultures; experiment: Cholesterol efflux from neurons; format: cell-based, mouse; conditions: standard deviation in parentheses
Procedure: Primary murine neuronal cultures were prepared from C57 B1/6 mice essentially as described elsewhere (23). In brief, embryonic day 18 fetuses were collected by caesarian section, their brains removed and the cerebral cortices dissected from the rest of the brain. The tissue was rinsed during these steps several times in Ca^2+- and Mg^2+-free Hank's balanced salt solution (HBSS, containing 1 mM HEPES, GIBCO). After the meninges were removed with forceps, the tissue was minced and incubated for 15 minutes at 37° C. in 0.25% trypsin (Sigma) in HBSS. The tissue was then washed twice in HBSS and twice in neuronal plating media (minimal essential media [MEM] containing 3 mg/ml glucose, 5% fetal bovine serum [FBS; GibcoBRL], 5% horse serum [HS; GibcoBRL], 100 U/ml penicillin/100 μg/ml streptomycin [Irvine Scientific] and 2 mM glutamine [Irvine Scientific]) to which 10 μg/ml DNAseI (Sigma) had been added. […] The resulting cell pellet was resuspended in plating media, and trypan blue-excluding surviving cells were counted in a hemacytometer. […]
Cholesterol efflux assays were performed as described elsewhere (24) with some modifications. […] Two hundred microliters of the culture media supernatant and 200 μl of the cell extract were counted for tritium in 2 ml Packard Ultima Gold Scint. […] Efflux is expressed as percent of the total radiolabeled cholesterol pool present in the cultures.

Row | SMILES | ABCG1 expression normalized to vehicle group (ABCG1 [1]; CB (cerebellum), first table) | ABCG1 expression normalized to vehicle group (ABCG1 [1]; CB (cerebellum), second table) | ABCG1 expression normalized to vehicle group (ABCG1 [1]; HC (hippocampus), first table) | ABCG1 expression normalized to vehicle group (ABCG1 [1]; HC (hippocampus), second table) | ABCG1 expression normalized to vehicle-treated group (fold induction) (ABCG1 [2]) | ABCA1 expression normalized to vehicle-treated group (fold induction) (ABCA1) | Cholesterol efflux as a percentage of total [3H] cholesterol [3]
1 | O=C(O)Cc1cccc(OCCCN(Cc2cccc(C(F)(F)F)c2Cl)CC(c2ccccc2)c2ccccc2)c1 [Example 1, 2-(3-{3-[[2-Chloro-3-(trifluoromethyl)benzyl](2,2-diphenylethyl)amino]propoxy}-phenyl)acetic Acid] | 1.52 (0.073) | 1.17 (0.142) | 1.14 (0.212) | 0.89 (0.045) | 2.8 | 2.8 | 1.252 (0.179) %
2 | O=S(=O)(c1ccccc1)N(CC(F)(F)F)c1ccc(C(O)(C(F)(F)F)C(F)(F)F)cc1 [Example T0901317, N-(2,2,2-trifluoroethyl)-N-[4-(2,2,2-trifluoro-1-hydroxy-1-trifluoromethyl-ethyl)-phenyl]-benzenesulfonamide] | 2.31 (0.081) | 1.80 (0.116) | 1.22 (0.098) | 1.37 (0.092) | 3.1 | 3.0 | 1.427 (0.031) %
